# Test results as given in patent US6221865A, “Inhibitors of protein isoprenyl transferases” (priority 1998, dated 2001).
# Structures can show the parent of a compound that is named as a salt.
# Biological target: T1, protein farnesyltransferase (Rattus norvegicus, UniProt Q02293+Q04631)
# T1 construct: The enzyme is purified according to Reiss, Y., et al., Cell, 62: 81-88 (1990), utilizing steps one through three; from tissue; host or cells: rat brain
# Experiment: Inhibition of farnesyltransferase (scintillation proximity assay, rat brain enzyme, biotin-K Ras B fragment substrate)
# Assay type: biochemical
# Conditions: 1 × 10^-6 M (Table 2); for inhibition at 1 µM: read-out: % inhibition of farnesyltransferase at 1 × 10^-6 M
# From the text: The ability of the compounds of the invention to inhibit protein farnesyltransferase or protein geranylgeranyltransferase can be measured according to the method of Moores, et al., J. Biol. Chem. 266: 14603 (1991) or the method of Vogt, et al., J. Biol. Chem. 270:660-664 (1995). In addition, procedures for determination of the inhibition of farnesylation of the oncogene protein Ras are described by Goldstein, et al., J. Biol. Chem., 266:15575-15578 (1991) and by Singh in U.S. Pat. No. 5,245,061.
# In addition, in vitro inhibition of protein farnesyltransferase may be measured by the following procedure. Rat brain protein farnesyltransferase activity is measured using an Amersham Life Science commercial scintillation proximity assay kit and substituting a biotin-K Ras B fragment (biotin-[…]Ble-Met-CO2 H), […] final concentration, for the biotin-lamin substrate provided by Amersham. The enzyme is purified according to Reiss, Y., et al., Cell, 62: 81-88 (1990), utilizing steps one through three.
# The % inhibition of protein farnesyltransferase was determined for representative compounds of the invention.
# T1 sequence (Q02293 whole entry, one chain of several): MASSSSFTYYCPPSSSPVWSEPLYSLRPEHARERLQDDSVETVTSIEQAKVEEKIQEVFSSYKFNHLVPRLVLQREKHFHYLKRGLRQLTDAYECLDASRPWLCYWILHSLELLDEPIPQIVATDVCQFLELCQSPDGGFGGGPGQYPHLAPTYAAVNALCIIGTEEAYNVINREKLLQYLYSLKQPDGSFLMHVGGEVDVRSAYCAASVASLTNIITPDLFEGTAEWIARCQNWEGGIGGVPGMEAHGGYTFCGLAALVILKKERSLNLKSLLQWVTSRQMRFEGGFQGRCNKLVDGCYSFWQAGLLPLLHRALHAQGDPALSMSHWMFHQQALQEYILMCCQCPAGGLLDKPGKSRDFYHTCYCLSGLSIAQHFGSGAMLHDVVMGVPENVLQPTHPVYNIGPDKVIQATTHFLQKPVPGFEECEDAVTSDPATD
inhibition at 1 µM [%],% inhibition of farnesyltransferase at 1 × 10^-6 M [%],SMILES
92,,"CSCC[C@H](NC(=O)c1ccc(C=CCc2ccccc2)cc1-c1ccccc1C)C(=O)O (mixture of isomers) [Example 469, N-[4-(3-phenylprop-1-enyl)-2-(2-methylphenyl)benzoyl]methionine (1:1 mixture of olefin isomers)]"
93,,"CSCC[C@H](NC(=O)c1ccc(C=CCc2ccc3ccccc3c2)cc1-c1ccccc1C)C(=O)O (mixture of isomers) [Example 496, N-[4-(3-naphth-2-ylprop-1-enyl)-2-(2-methylphenyl)benzoyl]methionine lithium salt (1:1 mixture of olefin isomers)]"
,12,CSCCC(NC(=O)c1ccc(NC(=O)Cc2cscn2)cc1-c1ccccc1)C(=O)O (stereo not drawn) [Example 162]
,18,CSCC[C@H](NC(=O)c1ccc(NC(=O)Cc2nccs2)cc1-c1ccccc1)C(=O)O [Example 163]
,92,COC(=O)[C@H](CCSC)NC(=O)c1ccc(NC(=O)[C@@H]2CSCN2)cc1-c1ccccc1.Cl [Example 164]
,74,CSCC[C@H](NC(=O)c1ccc(NC(=O)[C@@H]2CSCN2)cc1-c1ccccc1)C(=O)O [Example 165]
,97,CSCC[C@H](NC(=O)c1ccc(NC[C@@H]2CSCN2)cc1-c1ccccc1)C(=O)O.Cl [Example 166]
,31,CSCC[C@H](NC(=O)c1ccc(NC(=O)C2CCC(=O)N2)cc1-c1ccccc1)C(=O)O (stereo partly drawn) [Example 202]
,56,CSCCC(NC(=O)c1ccc(NC(=O)c2cncnc2)cc1-c1ccccc1)C(=O)O (stereo not drawn) [Example 219]
41,,CSCC[C@H](NC(=O)c1ccc(N2CC(=O)NNC2=O)cc1-c1ccccc1)C(=O)O [Example 224]
,50,CSCCC(NC(=O)c1ccc(NC(=O)C2CCCNC2)cc1-c1ccccc1)C(=O)O (stereo not drawn) [Example 231]
,96,CSCC[C@H](NC(=O)c1ccc(COCc2cccs2)cc1-c1ccccc1C)C(=O)[O-].[Li+] [Example 273]
,98,CSCC[C@H](NC(=O)c1ccc(NC(=O)C2=C(C(F)(F)F)C=CNC2)cc1-c1ccccc1)C(=O)O [Example 283]
,84,CSCC[C@H](NC(=O)c1ccc(NCC2CNCCN2)cc1-c1ccccc1)C(=O)O (stereo partly drawn) [Example 286]
,24,CSCC[C@H](NC(=O)c1ccc(COCC2CCOC2)cc1-c1ccccc1)C(=O)O (stereo partly drawn) [Example 287]
,22,CSCC[C@H](NC(=O)c1ccc(COCC2CCCO2)cc1-c1ccccc1)C(=O)O (stereo partly drawn) [Example 288]
23,,"CSCC[C@H](NC(=O)c1ccc(CN2CCN(C)CC2)cc1-c1ccccc1)C(=O)O [Example 289, [4-(4-methylpiperazinylmethyl)-2-phenylbenzoyl]methionine]"
74,,"CSCC[C@H](NC(=O)c1ccc(CN2CCNCC2)cc1-c1ccccc1)C(=O)O [Example 290, (4-piperazinylmethyl-2-phenylbenzoyl)methionine]"
23,,CSCC[C@H](NC(=O)c1ccc(CN2CCC(O)C2)cc1-c1ccccc1)C(=O)O (stereo partly drawn) [Example 291]
43,,CCCCON(CCC1CCCCC1)Cc1ccc(C(=O)N[C@@H](CCS(C)(=O)=O)C(=O)O)c(-c2ccccc2C)c1 [Example 298]
94,,CCCCN(C)N(CCC1CCCCC1)Cc1ccc(C(=O)N[C@@H](CCSC)C(=O)O)c(-c2ccccc2C)c1 [Example 299]
22,,CCCCN(C)N(CCC1CCCCC1)Cc1ccc(C(=O)N[C@@H](CCS(C)(=O)=O)C(=O)O)c(-c2ccccc2C)c1 [Example 300]

inhibition at 1 µM [%],% inhibition of farnesyltransferase at 1 × 10^-6 M [%],SMILES
98,,CSCC[C@H](NC(=O)c1ccc(CN(C)C(CC2CCCCC2)C(=O)N2CCCCC2)cc1-c1ccccc1C)C(=O)O (stereo partly drawn) [Example 301]
31,,CSCC[C@H](NC(=O)c1ccc(CN(C)C(CC2CCCCC2)C(=O)N2CCOCC2)cc1-c1ccccc1C)C(=O)O (stereo partly drawn) [Example 302]
82,,CSCC[C@H](NC(=O)c1ccc(CNC(C)(C)Cc2ccccc2)cc1-c1ccccc1C)C(=O)O [Example 307]
62,,CSCC[C@H](NC(=O)c1ccc(CNC(C)(C)CC2CCCCC2)cc1-c1ccccc1C)C(=O)O [Example 308]
98,,CSCC[C@H](NC(=O)c1ccc(CN(C)C(C)(C)Cc2ccccc2)cc1-c1ccccc1C)C(=O)O [Example 309]
97,,Cc1ccccc1-c1cc(CNC(C)(C)Cc2ccccc2)ccc1C(=O)N[C@@H](CCS(C)(=O)=O)C(=O)O [Example 311]
94,,Cc1ccccc1-c1cc(CN(C)C(C)(C)Cc2ccccc2)ccc1C(=O)N[C@@H](CCS(C)(=O)=O)C(=O)O [Example 313]
97,,Cc1ccccc1-c1cc(CN(C)C(C)(C)CC2CCCCC2)ccc1C(=O)N[C@@H](CCS(C)(=O)=O)C(=O)O [Example 314]
93,,CSCC[C@H](NC(=O)c1ccc(CN(C2CC2)C(C)(C)Cc2ccccc2)cc1-c1ccccc1C)C(=O)O [Example 315]
63,,CSCC[C@H](NC(=O)c1ccc(CN(C2CC2)C(C)(C)CC2CCCCC2)cc1-c1ccccc1C)C(=O)O [Example 316]
54,,CSCC[C@H](NC(=O)c1ccc(CN(C(C)C)C(C)(C)Cc2ccccc2)cc1-c1ccccc1C)C(=O)O [Example 317]
98,,CSCC[C@H](NC(=O)c1ccc(CN(C(C)C)C(C)(C)CC2CCCCC2)cc1-c1ccccc1C)C(=O)O [Example 318]
98,,Cc1ccccc1-c1cc(CN(C2CC2)C(C)(C)Cc2ccccc2)ccc1C(=O)N[C@@H](CCS(C)(=O)=O)C(=O)O [Example 319]
93,,Cc1ccccc1-c1cc(CN(C2CC2)C(C)(C)CC2CCCCC2)ccc1C(=O)N[C@@H](CCS(C)(=O)=O)C(=O)O [Example 320]
90,,Cc1ccccc1-c1cc(CN(C(C)C)C(C)(C)Cc2ccccc2)ccc1C(=O)N[C@@H](CCS(C)(=O)=O)C(=O)O [Example 321]
98,,Cc1ccccc1-c1cc(CN(C(C)C)C(C)(C)CC2CCCCC2)ccc1C(=O)N[C@@H](CCS(C)(=O)=O)C(=O)O [Example 322]
98,,CSCC[C@H](NC(=O)c1ccc(CN(C2CC2)C2(Cc3ccccc3)CC2)cc1-c1ccccc1C)C(=O)O [Example 323]
98,,CSCC[C@H](NC(=O)c1ccc(CN(C2CC2)C2(CC3CCCCC3)CC2)cc1-c1ccccc1C)C(=O)O [Example 324]
99,,CSCC[C@H](NC(=O)c1ccc(CN(C(C)C)C2(Cc3ccccc3)CC2)cc1-c1ccccc1C)C(=O)O [Example 325]
91,,CSCC[C@H](NC(=O)c1ccc(CN(C(C)C)C2(CC3CCCCC3)CC2)cc1-c1ccccc1C)C(=O)O [Example 326]
97,,Cc1ccccc1-c1cc(CN(C(C)C)C2(Cc3ccccc3)CC2)ccc1C(=O)N[C@@H](CCS(C)(=O)=O)C(=O)O [Example 327]
98,,CSCC[C@H](NC(=O)c1ccc(CN(C2CC2)C2(Cc3ccccc3)CCC2)cc1-c1ccccc1C)C(=O)O [Example 329]

SMILES,inhibition at 1 µM [%],% inhibition of farnesyltransferase at 1 × 10^-6 M [%]
CSCC[C@H](NC(=O)c1ccc(COCc2ccsc2)cc1-c1ccccc1C)C(=O)[O-].[Li+] [Example 274],,94
